Read-outs that look alike come from different tables or passages of the source.
How the values were obtained:
[1] = tested on: experimental acute pancreatitis model; test: Effects against acute pancreatitis (Test Example 8, closed duodenal loop method, lesion scores); assay type: in vivo, Crj-CD male rats; conditions: sodium salt, 6 hours after ventrotomy; for inhibition in vivo at 10 mg/kg: Rattus norvegicus, 10 mg/kg single intravenous injection
How it was run: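 Closed duodenal loop pancreatitis in male Crj-CD rats (n=3) under halothane/nitrous oxide; sodium-salt compounds given i.v. into tail vein by continuous infusion or bolus, controls untreated. At 6 h, four pancreatic lesions scored 0-3; inhibition % of total and hemorrhagic scores calculated versus control.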

[2] = tested on: carrageenin edema; test: Inhibitory activity on carrageenin edema; assay type: in vivo, Wistar male rats; conditions: po, 3 h; rat; dose 100 mg/kg orally; paw swelling volume three hours after carrageenin; read-out: Inhibition rate (%)
Method: Using Wistar male rats (body weight: about 100 g), each test group consisted of 5 rats. A test compound was mixed with Tween 80 [polyoxyethylenesorbitan monooleate (manufactured by Nacalai Tesque K.K.)], and distilled water was added thereto to obtain a 2% Tween 80 suspension, or it was dissolved in the form of a salt in water to obtain an aqueous solution. Either the suspension or the aqueous solution was orally administered in an amount of 200 mg/kg, 100 mg/kg, 50 mg/kg or 25 mg/kg. One hour later, 0.1 ml of a 1% λ-carrageenin solution dissolved in a physiological saline was injected subcutaneously to the right hind paw of each rat to cause inflamation. Three hours later, the paw volume was measured by a paw volume measuring device (manufactured by Ugobasiee K.K.). A swelling volume was obtained from the difference from the value before the inflammation. Inhibition rate (%) = (l -(F)/(E)) x 100 [formula] • F: Average swelling volume in the group to which a test compound was administered. • E: Average swelling volume in the control group.

[3] = tested on: increased vascular permeability induced by acetic acid; test: Inhibitory activity on increased vascular permeability induced by acetic acid (Mouse Whittle method, method C); assay type: in vivo, ddy male mice; conditions: amount of leaked dye
Method: Using ddy male mice, each test group consisted of 4 or 5 mice. A test compound was mixed with Tween 80 [polyoxyethylenesorbitan monooleate (manufactured by Nacalai Tesque K.K.)], and distilled water was added thereto to obtain a 2% Tween 80 suspension, or it was dissolved in the form of a salt in water to obtain an aqueous solution. A test compound was orally administered, and upon expiration of one hour from the administration, 0.7% acetic acid was intraperitonially injected to each mouse in an amount of 0.1 ml/10 g, and at the same time, 2% brilliant blue was intravenously injected into the tail vein in an amount of 0.1 ml/20 g. Thirty minutes after the injection of brilliant blue, the cervical vertebrae were dislocated under anesthesia by chloroform, and the abdorminal cavity was washed with 5 ml of a physiological saline. The washing solution was subjected to centrifugal separation at 3,000 rpm for 10 minutes, and the amount of the dye in the supernatant was measured at 600 nm absorbance by Microplate ELISA Reader (Model 2550EIA Reader, manufactured by Bio-Rad Laboratories). The inhibition rate of the amount of leaked dye in the group in which a test compound was administered relative to the control group was obtained by the following formula. Inhibition rate (%) = (l -(C)/(D)) x 100 [formula] • C: Amount of leaked dye in the group to which a test compound was administered. • D: Amount of leaked dye in the control group.

[4] = Acute toxicity, intravenous injection (LD50); assay type: in vivo; conditions: mouse, in vivo, ddy male mice, sodium salt, mortality over one week
Method: Administration route: Intravenous injection
Using ddy male mice (body weight: 25 - 30 g), each test group consisted of 5 mice. A test compound was dissolved in the form of a sodium salt in a physiological saline or in a 5% glucose aqueous solution, and intravenously injected in an amount of 0.1 ml/10 g body weight. After the injection, the mortality rate was obtained over one week, and the median lethal dose LD50 (mg/kg) was determined.

[5] = biological target: T1, Porcine pancreatic phospholipase A2 (Sus scrofa, UniProt P00592); test: Phospholipase A2 inhibitory activity, method A (egg yolk lecithin substrate); assay type: biochemical; conditions: 1,000 ppm, 37°C for 30 minutes, read-out: % inhibition of PLA2 (1,000 ppm)
T1 construct: purchased Boehringer Mannheim·Yamanouchi K.K. 161454·122416
T1 sequence (P00592 23-146): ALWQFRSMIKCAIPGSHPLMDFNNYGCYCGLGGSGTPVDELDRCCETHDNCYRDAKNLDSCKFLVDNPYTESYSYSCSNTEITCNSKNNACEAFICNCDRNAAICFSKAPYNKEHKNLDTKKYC
Method: To 10 mg of egg yolk lecithin (manufactured by Wako Pure Chemical Industries Ltd.), 1 ml of glycerine, 2 ml of a 50 mM Tris-HCl buffer solution (pH7.5) [Tris(hydroxymethyl)aminomethane (manufactured by Nacalai Tesque K.K.) was adjusted to pH7.5 with hydrochloric acid], 0.5 ml of a 150 mM calcium chloride solution (calcium chloride was dissolved in a 50 mM Tris-HCl buffer solution) and 0.5 ml of a 0.05% Triton-X100 (manufactured by Nacalai Tesque K.K.) solution (Triton-X100 was dissolved in a 50 mM Tris-HCl buffer solution), were added and dispersed by an agate mortar or dispersed by an ultrasonic processor (Model W-225, manufactured by Heat System-Ultrasonics, Inc.) for 5 minutes (30W) to obtain a substrate.
Porcine pancreatic phospholipase A2 [(161454·122416) manufactured by Boehringer Mannheim·Yamanouchi K.K.] was used.
To a 96 well microtitration plate (flat bottom, manufactured by Sumitomo Bakelite Medical Co., Ltd.), 40 µl of the substrate, 5 µl of a solution prepared by dissolving 10 mg of a test compound in 500 µl of dimethylsulfoxide, followed by an addition of 500 µl of a 50 mM Tris-HCl buffer solution, and 5 µl of an enzyme solution of 20 ng/ml (prepared by diluting the enzyme in a 50 mM Tris-HCl buffer solution), were added and reacted at 37°C for 30 minutes. After termination of the reaction, the released free fatty acid was quantitatively analyzed in accordance with the ACS-ACOD (acyl CoA synthetase-acyl CoA oxidase) method [a kit of NEFA C test wako (manufactured by Wako Pure Chemical Industries, Ltd.) was used]. The quantitative analysis was made by means of Microplate ELISA Reader (Model 2550EIA Reader, manufactured by Bio-Rad Laboratories) at a wavelength of 540 nm. Separately, such experiments as mentioned above, were carried out at various concentrations (2 µg/ml, 1 µg/ml and 0.5 µg/ml) of phospholipase A2 without a test compound. Then, the concentration of the free fatty acid versus the concentration of phospholipase A2 was plotted.
From this standard curve, the apparent concentration of phospholipase A2 in the case with a test compound, was read. Then, the percent inhibition of the enzyme was calculated by the following formula. Percent inhibition (%) = (l -(A)/(B)) x 100 [formula] • A: Apparent enzyme concentration when a test compound is added. • B: True enzyme concentration when a test compound is added.

[6] = biological target: T1, Porcine pancreatic phospholipase A2; test: Phospholipase A2 inhibitory activity, method B (L-α-dipalmitoylphosphatidylcholine substrate); assay type: biochemical; conditions: 1,000 ppm, 37°C for 30 minutes, read-out: % inhibition of PLA2 (1,000 ppm)
How it was run: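 Substrate: L-α-dipalmitoylphosphatidylcholine/sodium cholate mixed micelles in 250 mM NaCl, 100 mM Tris-HCl pH 8.0. Enzyme (10 µg/ml stock) incubated with compound in buffer containing CaCl2 and BSA, 30 min at 37 °C. Released free fatty acid measured by ACS-ACOD at 540 nm; % inhibition derived from apparent enzyme concentration read off a standard curve.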

[7] = 20 mg/kg continuous intravenous injection
[8] = read-out: Inhibition rate of hemorrhagic lesions (%)
[9] = read-out: Inhibition rate of pancreatitis lesions (%)

Structure (SMILES) | inhibition in vivo at 100 mg/kg [2] [%] | Inhibition rate (%) ([3]; dose 20 mg/kg orally) | LD50 at 168 h ([4]; iv) [mg/kg] | inhibition at 1000 ppm [5] [%] | Inhibition rate (%) ([3]; dose 50 mg/kg orally) | further results
CS(=O)(=O)Nc1ncc(C(F)(F)F)cc1NC(=O)c1ccccc1F [compound 57] | 35 | 43 | 83 | 57 | – | Inhibition rate of hemorrhagic lesions (%) [1, 7]: 60%
CCOC(=O)Nc1cc(C(F)(F)F)cnc1NS(C)(=O)=O [compound 15] | – | – | – | 62 | 41 | inhibition in vivo at 10 mg/kg [1, 8]: 45%; inhibition in vivo at 10 mg/kg [1, 9]: 61%; LD50 at 168 h [4]: 100 to 150 mg/kg
CCCCC(=O)Nc1cc(C(F)(F)F)cnc1NS(C)(=O)=O [Compound No. 2] | 17 | 51 | 50 to 100 | 55 | – | Inhibition rate of hemorrhagic lesions (%) ([1]; 26 mg/kg continuous intravenous injection): 46%
CNc1ncc(C(F)(F)F)cc1NC(=O)C(F)(F)C(F)(F)F [compound 41] | – | – | – | 89 | – | Inhibition rate (%) ([3]; dose 100 mg/kg orally): 85%
C=CC(=O)Nc1cc(C(F)(F)F)cnc1NS(=O)(=O)CC [compound 49] | – | 50 | 175 | 30 | – | Inhibition rate of hemorrhagic lesions (%) ([1]; 42 mg/kg continuous intravenous injection): 68%
CCCCCCCCC(=O)Nc1cc(C(F)(F)F)cnc1NS(C)(=O)=O [Compound No. 4] | – | – | – | 74 | 43 | –
O=C(NNc1ncc(C(F)(F)F)cc1NC(=O)C(F)(F)C(F)(F)F)c1ccccc1 [compound 39] | 25 | 53 | – | 41 | – | –
CCS(=O)(=O)Nc1ncc(C(F)(F)F)cc1NC(=O)C(F)(F)Cl [compound 20] | – | 48 | – | 74 | – | –
CCOC(=O)NC(=S)Nc1cc(C(F)(F)F)cnc1NS(C)(=O)=O [compound 18] | – | – | – | 64 | – | Inhibition rate (%) ([3]; dose 25 mg/kg orally): 49%; LD50 at 168 h [4]: > 150 mg/kg; inhibition at 1000 ppm [6]: 49%
CCCCCCCCCCCC(=O)Nc1cc(C(F)(F)F)cnc1NS(C)(=O)=O [compound 5] | 37 | – | – | 39 | 53 | –
CCCC(=O)Nc1cc(C(F)(F)F)cnc1NS(C)(=O)=O [Compound No. 1] | – | – | 100 to 150 | 45 | 46 | inhibition in vivo at 10 mg/kg [1, 8]: 66%; inhibition in vivo at 10 mg/kg [1, 9]: 49%
CCCCCCCCS(=O)(=O)Nc1ncc(C(F)(F)F)cc1NC(=O)C(F)(F)C(F)(F)F [compound 23] | 30 | 33 | – | 37 | – | –
C=CC(=O)Nc1cc(C(F)(F)F)cnc1NS(C)(=O)=O [compound 9] | – | – | > 150 | 71 | 81 | inhibition in vivo at 10 mg/kg [1, 8]: 36%; inhibition in vivo at 10 mg/kg [1, 9]: 21%
CC(C)(C)CC(=O)Nc1cc(C(F)(F)F)cnc1NS(C)(=O)=O [compound 7] | – | 53 | – | – | – | inhibition at 1000 ppm [6]: 50%
C/C=C/C(=O)Nc1cc(C(F)(F)F)cnc1NS(C)(=O)=O [compound 55, N-(2-methylsulfonylamino-5-trifluoromethyl-3-pyridyl)crotonamide] | – | – | 237 | 49 | – | Inhibition rate of hemorrhagic lesions (%) ([1]; 40 mg/kg continuous intravenous injection): 65%; Inhibition rate (%) ([3]; dose 25 mg/kg orally): 59%
CCCCOC(=O)Nc1cc(C(F)(F)F)cnc1NS(C)(=O)=O [compound 17] | – | – | – | 46 | 31 | Inhibition rate of hemorrhagic lesions (%) [1, 7]: 73%; LD50 at 168 h [4]: 50 to 100 mg/kg
CC(=O)OCC(=O)Nc1cc(C(F)(F)F)cnc1NS(C)(=O)=O [compound 63, N-(2-methylsulfonylamino-5-trifluoromethyl-3-pyridyl)acetoxyacetamide] | – | – | > 130 | – | – | inhibition in vivo at 10 mg/kg [1, 8]: 83%; inhibition in vivo at 10 mg/kg [1, 9]: 66%; Inhibition rate (%) ([3]; dose 10 mg/kg orally): 41%; inhibition at 1000 ppm [6]: 34%
CS(=O)(=O)Nc1ncc(C(F)(F)F)cc1NC(=O)C1CCCCC1 [compound 8] | – | 48 | > 25 | 81 | – | –
CCCS(=O)(=O)Nc1ncc(C(F)(F)F)cc1NC(=O)C(F)(F)C(F)(F)F [compound 22] | 29 | – | > 100 | 74 | – | Inhibition rate (%) ([3]; dose 10 mg/kg orally): 39%

Source: EP0465913B1, “Diaminotrifluoromethylpyrimidine derivatives, process for their production and phospholipase A2 inhibitor containing them” (ISHIHARA SANGYO KAISHA, LTD., priority 1990, dated 1992)
